Data from patent US20240343747A1, “Heteroaryl compounds as inhibitors of TYK2, composition and application thereof” (Accro Bioscience (HK) Limited, priority 2021, published 2024).
pKd: −log10 of the molar value.

Legend:
[1] = Metabolic stability test, rat liver microsomes; format: in vitro ADME
Method: (§1) • 1. Buffer A: 1.0 L of 0.1 M monobasic Potassium Phosphate buffer containing 1.0 mM EDTA • Buffer B: 1.0 L of 0.1 M Dibasic Potassium Phosphate buffer containing 1.0 mM EDTA • Buffer C: 0.1 M Potassium Phosphate buffer, 1.0 mM EDTA, at about pH 7.4 by titrating 700 mL of Buffer B with Buffer A while monitoring with the pH meter. • 2. Reference compounds (Ketanserin) and test compounds spiking solution: • 500 µM spiking solution: add 10 μL of 10 mM DMSO stock solution into […] ACN. • 1.5 µM spiking solution in microsomes (0.75 mg/mL): add 1.5 μL of 500 µM spiking solution and 18.75 μL of 20 mg/mL liver microsomes into 479.75 μL of Buffer C on ice. • 3. Prepare NADPH stock solution (6 mM) by dissolving NADPH into buffer C. • 4. Dispense 30 μL of 1.5 µM spiking solution containing 0.75 mg/mL microsomes solution to the assay plates designated for different time points (0-, 5-, 15-, 30-, 45-min) on ice. • 5. For 0-min, add 135 μL of ACN containing IS to the wells of 0-min plate and then add 15 μL of NADPH stock solution (6 mM). • 6. Pre-incubate all other plates at 37° C. for 5 minutes. • 7. Add 15 μL of NADPH stock solution (6 mM) to the plates to start the reaction and timing. • 8. At 5-min, 15-min, 30-min, and 45-min, add 135 μL of ACN containing IS to the wells of corresponding plates, respectively, to stop the reaction. • 9. After quenching, shake the plates at the vibrator (IKA, MTS 2/4) for 10 min (600 rpm/min) and then centrifuge at 5594 g for 15 min (Thermo Multifuge×3R). • 10. Transfer 50 μL of the supernatant from each well into a 96-well sample plate containing 50 μL of ultra pure water (Millipore, ZMQS50F01) for LC/MS analysis.

[2] = Metabolic stability test, human liver microsomes; format: in vitro ADME
Method: as §1

TYK2/JAK1 pathway = assay: Selectivity: TYK2/JAK1 pathway, IFN-α-induced p-STAT1 in human PBMC, western blot; format: cell-based
Method: Commercial human PBMC (peripheral blood mononuclear cells) were centrifuged (400 g) for 10 min, counted and planted on 6-well plates (5 million/well). Then, the compounds to be tested were added for 2 hours and IFN-α (100 ng/mL) was added to stimulate cells for 15 minutes. Protein lysate was used to lysate cells, and BCA kit was used for protein quantification. Finally, p-STAT1/STAT1, P-TYK2/TYK2 and internal reference protein B-Actin were detected by Western blot.

JAK2 JH1 = JAK2 JH1 (Homo sapiens (Human), UniProt O60674); assay: Competitive binding assay (kinase-tagged phage, qPCR), JAK2 JH1
Method: For most assays, kinase-tagged T7 phage strains were prepared in an E. coli host derived from the BL21 strain. E. coli were grown to log-phase and infected with T7 phage and incubated with shaking at 32° C. until lysis. The lysates were centrifuged and filtered to remove cell debris. The remaining kinases were produced in HEK-293 cells and subsequently tagged with DNA for qPCR detection. Streptavidin coated magnetic beads were treated with biotinylated small molecule ligands for 30 minutes at room temperature to generate affinity resins for kinase assays. The liganded beads were blocked with excess biotin and washed with blocking buffer (SeaBlock (Pierce), 1% BSA, 0.05% Tween 20, 1 mM DTT) to remove unbound ligand and to reduce non-specific binding. […] Test compounds were prepared as 111X stocks in 100% DMSO. Dissociation constants (Kds) were determined using an 11-point 3-fold compound dilution series with three DMSO control points. […] The kinase concentration in the eluates was measured by qPCR.
An 11-point 3-fold serial dilution of each test compound was prepared in 100% DMSO at 100× final test concentration and subsequently diluted to 1× in the assay (final DMSO concentration=1%). Most Kds were determined using a compound top concentration=30,000 nM. […]
Binding constants (Kds) were calculated with a standard dose-response curve using the Hill equation: […]

JAK1/JAK3 pathway = assay: Selectivity: JAK1/JAK3 pathway, IL-2-induced p-STAT5 in human PBMC, western blot; format: cell-based; details: IL-2 100 ng/mL
Method: Commercial human PBMC (peripheral blood mononuclear cells) were centrifuged (400 g) for 10 min, counted and seeded into 6-well plates (5 million/well). The compounds to be tested were added for 2 hours and then IL-2 (100 ng/mL) was added to stimulate cells for 15 minutes. Finally, p-STAT5/STAT5 and internal reference protein β-actin were detected by Western blot.

Sequence of JAK2 JH1 (O60674 849-1124): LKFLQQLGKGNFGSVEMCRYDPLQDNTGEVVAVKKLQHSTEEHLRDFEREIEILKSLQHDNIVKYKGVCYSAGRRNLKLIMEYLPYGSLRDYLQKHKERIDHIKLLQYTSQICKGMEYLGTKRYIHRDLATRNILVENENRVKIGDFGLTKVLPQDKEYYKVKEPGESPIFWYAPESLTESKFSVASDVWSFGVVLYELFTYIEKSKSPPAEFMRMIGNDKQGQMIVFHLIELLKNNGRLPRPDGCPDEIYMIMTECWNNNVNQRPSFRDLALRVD

| SMILES | stability in rat liver microsomes (in words) ([1]; conclusion from Table 5) | half-life at 1 μM ([1]; pH 7.4, rat liver microsomes, read-out: T1/2 RLM) [h] | CL RLM ([1]; rat liver microsomes) [mL/min/kg] | stability in human liver microsomes (in words) ([2]; conclusion from Table 5) | CL HLM ([2]; human liver microsomes) [mL/min/kg] | half-life at 1 μM ([2]; pH 7.4, human liver microsomes, read-out: T1/2 HLM) [h] | inhibition of TYK2/JAK1 pathway compared with BMS986165 (TYK2/JAK1 pathway; IFN-α) | inhibition of downstream STAT1 phosphorylation induced by IFN-α (TYK2/JAK1 pathway; IFN-α 100 ng/mL, western blot) | pKd (JAK2 JH1) | effect on IL-2-induced downstream STAT5 phosphorylation (JAK1/JAK3 pathway) |
| --- | --- | --- | --- | --- | --- | --- | --- | --- | --- | --- |
| CCC(=O)c1cnc(NC(=O)C2CC2)cc1Nc1cccc(-c2cc(P(C)(C)=O)n(C)n2)c1OC [Compound B2, N-(4-((3-(5-(dimethylphosphoryl)-1-methyl-1H-pyrazol-3-yl)-2-methoxyphenyl)amino)-5-propionylpyridin-2-yl)cyclopropanecarboxamide] | good stability | 1.68 | 24.6 | good stability | <8.6 | > 2.42 | – | – | – | – |
| CCC(=O)c1cnc(NC(=O)C2CC2)cc1Nc1cccc(-c2cc(P(=O)(C3CC3)C3CC3)n(C)n2)c1OC [Compound B37, N-(4-((3-(5-(dicyclopropylphosphoryl)-1-methyl-1H-pyrazol-3-yl)-2-methoxyphenyl)amino)-5-propionylpyridin-2-yl)cyclopropanecarboxamide] | – | – | – | – | – | – | better inhibitory activity than BMS986165 | effectively inhibit | < 4.52 | no effect |
